Test results published in patent publication US12091424B2, “Rapamycin derivatives” (NOVARTIS AG, priority 2017, dated 2024).

What was measured:
mTORC1 signaling = assay: MEF TSC1−/− cell-based assay for rapalog potency (pS6); parameters: species or system Mouse; conditions: MEF TSC1−/− cells, average from multiple assays
Procedure: Cell-based assay for rapalog potency determination. Rapalog potency was determined using MEF TSC1−/− cell based assay. MEF TSC1−/− cells are Mouse Embryonic Fibroblasts deficient in Tuberous sclerosis protein—TSC1, which negatively regulates mTORC1 signaling and thus display constitutive mTORC1 activation, resulting in phosphorylation (activation) of downstream molecules. This cell-based assay is used to measure inhibition (de-phosphorylation) of S6 and 4EBP1 by rapalogs or other mTOR inhibitors.
MEF TSC1−/− cells were plated on Poly-D-lysine coated 384 well Griener clear bottom plates and incubated overnight at 37° C., 5% CO2. […] Nuclei were visualized with Hoechst (ThermoFisher Scientific #H3570) staining. Cells were imaged (InCell 600) using respective fluorescence channels and the potency of mTOR inhibitors was defined by pS6 IC50 (nM).
In vitro potency of mTOR inhibitors was defined by pS6 IC50 (nM) in MEF TSC1−/− cells.

FKBP51 = FKBP51 (Homo sapiens (Human), UniProt Q13451); assay: SPR assay, binding affinity to FKBP51; conditions: single-cycle kinetics
Procedure: (§1) SPR Assay to Determine Binding Affinity to FK506-Binding Proteins (FKBP). N-terminal avi-his6 tagged FKBP fusions to FKBP12, FKBP51 and FKBP52 were expressed in E. coli and purified using standard chromatography. Each protein was subsequently immobilized on a streptavidin chip in a Biacore 8K SPR instrument (GE Healthcare). Using single-cycle kinetics, compound titrations were flowed at 45 uL/min over each surface using 2-minute association and 30-minute dissociation phases in a buffer containing 50 mM Tris pH 7.5/150 mM NaCl/0.01% Tween 20/1 mM DTT/2% DMSO. The data was fit using low molecular weight (LMW) single-cycle kinetics. The equilibrium dissociation constants (KD) are reported.

FKBP52 = FKBP52 (Homo sapiens (Human), UniProt Q02790); assay: SPR assay, binding affinity to FKBP52; conditions: single-cycle kinetics
Procedure: as §1

FKBP12 = FKBP12 (Homo sapiens (Human), UniProt P62942); assay: SPR assay, binding affinity to FKBP12; conditions: single-cycle kinetics
Procedure: as §1

[1] = test system: S6K1 (Thr389) in FKBP12 knock-down 293T cells; assay: S6K1 (Thr389) phosphorylation ELISA in FKBP12 knock-down 293T cells; format: cell-based; conditions: 2 hours treatment
in vivo = conditions: male, Sprague Dawley, rat, whole blood

Sequence of FKBP52 (Q02790 whole entry): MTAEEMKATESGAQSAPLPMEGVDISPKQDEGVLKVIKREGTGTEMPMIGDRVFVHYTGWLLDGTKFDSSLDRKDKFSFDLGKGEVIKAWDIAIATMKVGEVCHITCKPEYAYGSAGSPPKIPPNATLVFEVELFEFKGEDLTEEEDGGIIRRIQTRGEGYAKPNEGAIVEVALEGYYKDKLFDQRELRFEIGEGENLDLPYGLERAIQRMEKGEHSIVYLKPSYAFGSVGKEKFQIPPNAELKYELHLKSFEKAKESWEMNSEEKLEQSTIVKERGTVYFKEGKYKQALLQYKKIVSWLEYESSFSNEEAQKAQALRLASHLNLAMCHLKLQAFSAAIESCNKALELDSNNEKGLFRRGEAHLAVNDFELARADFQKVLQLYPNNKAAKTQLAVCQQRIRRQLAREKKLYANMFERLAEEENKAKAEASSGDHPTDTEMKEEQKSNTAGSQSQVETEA
Sequence of FKBP51 (Q13451 whole entry, the tested form may be a part): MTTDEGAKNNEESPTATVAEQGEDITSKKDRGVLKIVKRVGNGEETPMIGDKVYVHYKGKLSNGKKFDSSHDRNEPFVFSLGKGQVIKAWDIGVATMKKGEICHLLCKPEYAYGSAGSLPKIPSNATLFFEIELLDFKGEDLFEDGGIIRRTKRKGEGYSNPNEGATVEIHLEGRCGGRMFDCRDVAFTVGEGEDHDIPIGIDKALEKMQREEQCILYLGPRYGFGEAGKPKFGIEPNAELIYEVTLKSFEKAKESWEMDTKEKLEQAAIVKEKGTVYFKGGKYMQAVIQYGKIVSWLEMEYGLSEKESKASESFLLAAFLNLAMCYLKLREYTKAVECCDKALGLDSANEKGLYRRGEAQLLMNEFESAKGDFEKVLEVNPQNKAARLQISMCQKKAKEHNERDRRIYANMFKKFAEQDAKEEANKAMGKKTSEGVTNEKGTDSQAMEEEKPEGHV
Sequence of FKBP12 (P62942 whole entry): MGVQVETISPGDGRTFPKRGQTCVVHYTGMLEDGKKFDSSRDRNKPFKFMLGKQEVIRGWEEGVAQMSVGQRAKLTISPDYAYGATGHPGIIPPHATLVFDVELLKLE

SMILES	IC50 (mTORC1 signaling; Mus musculus) [nM]	Kd (FKBP51) [nM]	also measured
CO[C@H]1C[C@@H]2CC[C@@H](C)[C@@](O)(O2)C(=O)C(=O)N2CCCC[C@H]2C(=O)O[C@H]([C@H](C)C[C@@H]2CC[C@@H](OCCO)[C@H](OC)C2)CC[C@H](C)/C=C(\C)[C@@H](O)[C@@H](OC)C(=O)[C@H](C)C[C@H](C)/C=C/C=C/C=C/1C [Intermediate 3]	0.0591	–	–
CCOCCO[C@@H]1CC[C@@H](C[C@@H](C)[C@@H]2CC[C@H](C)/C=C(\C)[C@@H](O)[C@@H](OC)C(=O)[C@H](C)C[C@H](C)/C=C/C=C/C=C(\C)C(N3CCCS3(=O)=O)C[C@@H]3CC[C@@H](C)[C@@](O)(O3)C(=O)C(=O)N3CCCC[C@H]3C(=O)O2)C[C@H]1OC (single isomer, unassigned) [Example 18, C16-(1,1-dioxidoisothiazolidin-2-yl)-C32-deoxo-C40-(2-ethoxyethoxy)-rapamycin]	1.55	–	–
CO[C@@H]1C[C@H](C[C@@H](C)[C@@H]2CC[C@H](C)/C=C(\C)[C@@H](O)[C@@H](OC)C(=O)[C@H](C)C[C@H](C)/C=C/C=C/C=C(\C)C(N3CCCS3(=O)=O)C[C@@H]3CC[C@@H](C)[C@@](O)(O3)C(=O)C(=O)N3CCCC[C@H]3C(=O)O2)CC[C@H]1OP(C)(C)=O (single isomer, unassigned) [Example 15, C16-(1,1-dioxidoisothiazolidin-2-yl)-C32-deoxo-C40-dimethylphosphinyl-rapamycin]	–	–	IC50 (mTORC1 signaling): 3.2 nM
CO[C@@H]1C[C@H](C[C@@H](C)[C@@H]2CC[C@H](C)/C=C(\C)[C@@H](O)[C@@H](OC)C(=O)[C@H](C)C[C@H](C)/C=C/C=C/C=C(\C)C(N3CCC3=O)C[C@@H]3CC[C@@H](C)[C@@](O)(O3)C(=O)C(=O)N3CCCC[C@H]3C(=O)O2)CC[C@H]1O (single isomer, unassigned) [Example 3]	1.45	–	–
CO[C@@H]1C[C@H](C[C@@H](C)[C@@H]2CC[C@H](C)/C=C(\C)[C@@H](O)[C@@H](OC)C(=O)[C@H](C)C[C@H](C)/C=C/C=C/C=C(\C)C(N3CCS3(=O)=O)C[C@@H]3CC[C@@H](C)[C@@](O)(O3)C(=O)C(=O)N3CCCC[C@H]3C(=O)O2)CC[C@H]1OP(C)(C)=O (single isomer, unassigned) [Example 11, C16-(1,1-dioxido-1,2-thiazetidin-2-yl)-C32-deoxo-C40-dimethylphosphinyl-rapamycin]	3.33	–	–
CO[C@@H]1C[C@H](C[C@@H](C)[C@@H]2CC[C@H](C)/C=C(\C)[C@@H](O)[C@@H](OC)C(=O)[C@H](C)C[C@H](C)/C=C/C=C/C=C(\C)C(N3CCCS3(=O)=O)C[C@@H]3CC[C@@H](C)[C@@](O)(O3)C(=O)C(=O)N3CCCC[C@H]3C(=O)O2)CC[C@@H]1n1cnnn1 (single isomer, unassigned) [Example 17]	1.1	–	–
CO[C@H]1C[C@@H]2CC[C@@H](C)[C@@](O)(O2)C(=O)C(=O)N2CCCC[C@H]2C(=O)O[C@H]([C@H](C)C[C@@H]2CC[C@@H](OP(C)(C)=O)[C@H](OC)C2)CC[C@H](C)/C=C(\C)[C@@H](O)[C@@H](OC)C(=O)[C@H](C)C[C@H](C)/C=C/C=C/C=C/1C [Intermediate 4]	0.066	–	–
CO[C@@H]1C[C@H](C[C@@H](C)[C@@H]2CC[C@H](C)/C=C(\C)[C@@H](O)[C@@H](OC)C(=O)[C@H](C)C[C@H](C)/C=C/C=C/C=C(\C)C(N3CCS3(=O)=O)C[C@@H]3CC[C@@H](C)[C@@](O)(O3)C(=O)C(=O)N3CCCC[C@H]3C(=O)O2)CC[C@H]1O (single isomer, unassigned) [Example 7, C16-(1,1-dioxido-1,2-thiazetidin-2-yl)-C32-deoxo-rapamycin]	–	287	Kd (FKBP52): 236 nM; Kd (FKBP12): 1.2 nM
CO[C@@H]1C[C@H](C[C@@H](C)[C@@H]2CC[C@H](C)/C=C(\C)[C@@H](O)[C@@H](OC)C(=O)[C@H](C)C[C@H](C)/C=C/C=C/C=C(\C)[C@H](N3CCCS3(=O)=O)C[C@@H]3CC[C@@H](C)[C@@](O)(O3)C(=O)C(=O)N3CCCC[C@H]3C(=O)O2)CC[C@H]1OCCO [Example 16, (R)—C16-(1,1-dioxidoisothiazolidin-2-yl)-C32-deoxo-C40-(2-hydroxyethoxy)-rapamycin]	0.645	4060	–
CO[C@@H]1C[C@H](C[C@@H](C)[C@@H]2CC[C@H](C)/C=C(\C)[C@@H](O)[C@@H](OC)C(=O)[C@H](C)C[C@H](C)/C=C/C=C/C=C(\C)[C@@H](N3CCCS3(=O)=O)C[C@@H]3CC[C@@H](C)[C@@](O)(O3)C(=O)C(=O)N3CCCC[C@H]3C(=O)O2)CC[C@H]1O [Example 1, (S)—C16-(1,1-dioxidoisothiazolidin-2-yl)-C32-deoxo-rapamycin]	2.4	153	Kd (FKBP52): 174 nM; Kd (FKBP12): 0.35 nM
CO[C@@H]1C[C@H](C[C@@H](C)[C@@H]2CC[C@H](C)/C=C(\C)[C@@H](O)[C@@H](OC)C(=O)[C@H](C)C[C@H](C)/C=C/C=C/C=C(\C)C(N3CCN(C)C3=O)C[C@@H]3CC[C@@H](C)[C@@](O)(O3)C(=O)C(=O)N3CCCC[C@H]3C(=O)O2)CC[C@H]1O (single isomer, unassigned) [Example 4, C16-(3-methylimidazolidin-2-one-1-yl)-C32-deoxo-rapamycin]	> 500	–	–
CO[C@@H]1C[C@H](C[C@@H](C)[C@@H]2CC[C@H](C)/C=C(\C)[C@@H](O)[C@@H](OC)C(=O)[C@H](C)C[C@H](C)/C=C/C=C/C=C(\C)C(N3CCS3(=O)=O)C[C@@H]3CC[C@@H](C)[C@@](O)(O3)C(=O)C(=O)N3CCCC[C@H]3C(=O)O2)CC[C@H]1O (single isomer, unassigned) [Example 6, C16-(1,1-dioxido-1,2-thiazetidin-2-yl)-C32-deoxo-rapamycin]	0.17	39	Kd (FKBP52): 53 nM; Kd (FKBP12): 0.32 nM
CO[C@@H]1C[C@H](C[C@@H](C)[C@@H]2CC[C@H](C)/C=C(\C)[C@@H](O)[C@@H](OC)C(=O)[C@H](C)C[C@H](C)/C=C/C=C/C=C(\C)C(N3CCS3(=O)=O)C[C@@H]3CC[C@@H](C)[C@@](O)(O3)C(=O)C(=O)N3CCCC[C@H]3C(=O)O2)CC[C@@H]1n1cnnn1 (single isomer, unassigned) [Example 12]	0.374	–	–

Now from value to compound, other results behind:

IC50 (mTORC1 signaling; Mus musculus) [nM]	SMILES	Kd (FKBP51) [nM]	also measured
153	CO[C@@H]1C[C@H](C[C@@H](C)[C@@H]2CC[C@H](C)/C=C(\C)[C@@H](O)[C@@H](OC)C(=O)[C@H](C)C[C@H](C)/C=C/C=C/C=C(\C)C(N3CCN(CCO)C3=O)C[C@@H]3CC[C@@H](C)[C@@](O)(O3)C(=O)C(=O)N3CCCC[C@H]3C(=O)O2)CC[C@H]1O (single isomer, unassigned) [Example 5]	–	–
0.557	CO[C@@H]1C[C@H](C[C@@H](C)[C@@H]2CC[C@H](C)/C=C(\C)[C@@H](O)[C@@H](OC)C(=O)[C@H](C)C[C@H](C)/C=C/C=C/C=C(\C)C(N3CCS3(=O)=O)C[C@@H]3CC[C@@H](C)[C@@](O)(O3)C(=O)C(=O)N3CCCC[C@H]3C(=O)O2)CC[C@H]1OP(C)(C)=O (single isomer, unassigned) [Example 10, C16-(1,1-dioxido-1,2-thiazetidin-2-yl)-C32-deoxo-C40-dimethylphosphinyl-rapamycin]	95	–
0.106	CO[C@H]1C[C@@H]2CC[C@@H](C)[C@@](O)(O2)C(=O)C(=O)N2CCCC[C@H]2C(=O)O[C@H]([C@H](C)C[C@@H]2CC[C@H](n3cnnn3)[C@H](OC)C2)CC[C@H](C)/C=C(\C)[C@@H](O)[C@@H](OC)C(=O)[C@H](C)C[C@H](C)/C=C/C=C/C=C/1C [Intermediate 5]	–	–
0.092	CO[C@H]1C[C@@H]2CC[C@@H](C)[C@@](O)(O2)C(=O)C(=O)N2CCCC[C@H]2C(=O)O[C@H]([C@H](C)C[C@@H]2CC[C@@H](O)[C@H](OC)C2)CC[C@H](C)/C=C(\C)[C@@H](O)[C@@H](OC)C(=O)[C@H](C)C[C@H](C)/C=C/C=C/C=C/1C [Intermediate 1, C32-deoxo-rapamycin, reference compound]	–	–
0.05	CO[C@H]1C[C@@H]2CC[C@@H](C)[C@@](O)(O2)C(=O)C(=O)N2CCCC[C@H]2C(=O)O[C@H]([C@H](C)C[C@@H]2CC[C@@H](OCCO)[C@H](OC)C2)CC(=O)[C@H](C)/C=C(\C)[C@@H](O)[C@@H](OC)C(=O)[C@H](C)C[C@H](C)/C=C/C=C/C=C/1C [RAD001, everolimus, reference compound]	811	maximum inhibition of S6K1(Thr389) [1]: 70%; clearance (in vivo; iv, 1 mg/kg): 32 mL/min/kg; bioavailability (in vivo; oral, 3 mg/kg): 19%
